Activity calls are given as the source filed them.
Assays:
Format in all cases: functional, cell-based
SR = assay: Growth inhibition of human SR cells at 10 uM by sulforhodamine B assay
COLO 205 = assay: Growth inhibition of human COLO205 cells at 10 uM by sulforhodamine B assay
K562 = assay: Growth inhibition of human K562 cells at 10 uM by sulforhodamine B assay
LOX IMVI = assay: Growth inhibition of human LOXIMVI cells at 10 uM by sulforhodamine B assay
SN12C = assay: Growth inhibition of human SN12C cells at 10 uM by sulforhodamine B assay
SK-OV-3 = assay: Growth inhibition of human SKOV3 cells at 10 uM by sulforhodamine B assay
BT-549 = assay: Growth inhibition of human BT549 cells at 10 uM by sulforhodamine B assay
HL-60(TB) = assay: Growth inhibition of human HL-60(TB) cells at 10 uM by sulforhodamine B assay
HCT-15 = assay: Growth inhibition of human HCT15 cells at 10 uM by sulforhodamine B assay
SNB-75 = assay: Growth inhibition of human SNB75 cells at 10 uM by sulforhodamine B assay
RXF 393 = assay: Growth inhibition of human RXF393 cells at 10 uM by sulforhodamine B assay
MDA-MB-231 = assay: Growth inhibition of human MDA-MB-231 cells at 10 uM by sulforhodamine B assay
NCI/ADR-RES = assay: Growth inhibition of human NCI/ADR-RES cells at 10 uM by sulforhodamine B assay
KM12 = assay: Growth inhibition of human KM12 cells at 10 uM by sulforhodamine B assay
SF-295 = assay: Growth inhibition of human SF295 cells at 10 uM by sulforhodamine B assay
A498 = assay: Growth inhibition of human A498 cells at 10 uM by sulforhodamine B assay
U-251 = assay: Growth inhibition of human U251 cells at 10 uM by sulforhodamine B assay
SNB-19 = assay: Growth inhibition of human SNB19 cells at 10 uM by sulforhodamine B assay
SW-620 = assay: Growth inhibition of human SW620 cells at 10 uM by sulforhodamine B assay
SK-MEL-5 = assay: Growth inhibition of human SK-MEL-5 cells at 10 uM by sulforhodamine B assay
MDA-MB-435 = assay: Growth inhibition of human MDA-MB-435 cells at 10 uM by sulforhodamine B assay
SF-539 = assay: Growth inhibition of human SF539 cells at 10 uM by sulforhodamine B assay
Malme-3M = assay: Growth inhibition of human MALME-3M cells at 10 uM by sulforhodamine B assay
NCI-H522 = assay: Growth inhibition of human NCI-H522 cells at 10 uM by sulforhodamine B assay
OVCAR-8 = assay: Growth inhibition of human OVCAR8 cells at 10 uM by sulforhodamine B assay
PC-3 = assay: Growth inhibition of human PC3 cells at 10 uM by sulforhodamine B assay
HCT-116 = assay: Growth inhibition of human HCT116 cells at 10 uM by sulforhodamine B assay
HCC 2998 = assay: Growth inhibition of human HCC2998 cells at 10 uM by sulforhodamine B assay
M14 = assay: Growth inhibition of human M14 cells at 10 uM by sulforhodamine B assay
UACC-257 = assay: Growth inhibition of human UACC257 cells at 10 uM by sulforhodamine B assay
NCI-H23 = assay: Growth inhibition of human NCI-H23 cells at 10 uM by sulforhodamine B assay
NCI-H460 = assay: Growth inhibition of human NCI-H460 cells at 10 uM by sulforhodamine B assay
UACC-62 = assay: Growth inhibition of human UACC62 cells at 10 uM by sulforhodamine B assay
SK-MEL-2 = assay: Growth inhibition of human SK-MEL-2 cells at 10 uM by sulforhodamine B assay
NCI-H226 = assay: Growth inhibition of human NCI-H226 cells at 10 uM by sulforhodamine B assay
MDA-MB-468 = assay: Growth inhibition of human MDA-MB-468 cells at 10 uM by sulforhodamine B assay
OVCAR-3 = assay: Growth inhibition of human OVCAR3 cells at 10 uM by sulforhodamine B assay
OVCAR-4 = assay: Growth inhibition of human OVCAR4 cells at 10 uM by sulforhodamine B assay
UO-31 = assay: Growth inhibition of human UO31 cells at 10 uM by sulforhodamine B assay
Hs-578T = assay: Growth inhibition of human Hs 578T cells at 10 uM by sulforhodamine B assay
786-0 = assay: Growth inhibition of human 786-0 cells at 10 uM by sulforhodamine B assay
TK-10 = assay: Growth inhibition of human TK10 cells at 10 uM by sulforhodamine B assay
RPMI-8226 = assay: Growth inhibition of human RPMI8226 cells at 10 uM by sulforhodamine B assay
SF-268 = assay: Growth inhibition of human SF268 cells at 10 uM by sulforhodamine B assay
A549 = assay: Growth inhibition of human A549/ATCC cells at 10 uM by sulforhodamine B assay
MCF7 = assay: Growth inhibition of human MCF7 cells at 10 uM by sulforhodamine B assay
ACHN = assay: Growth inhibition of human ACHN cells at 10 uM by sulforhodamine B assay
CAKI-1 = assay: Growth inhibition of human Caki1 cells at 10 uM by sulforhodamine B assay
DU-145 = assay: Growth inhibition of human DU145 cells at 10 uM by sulforhodamine B assay
NCI-H322M = assay: Growth inhibition of human NCI-H322M cells at 10 uM by sulforhodamine B assay
HOP-62 = assay: Growth inhibition of human HOP62 cells at 10 uM by sulforhodamine B assay
IGROV-1 = assay: Growth inhibition of human IGROV1 cells at 10 uM by sulforhodamine B assay
MOLT-4 = assay: Growth inhibition of human MOLT4 cells at 10 uM by sulforhodamine B assay
HT-29 = assay: Growth inhibition of human HT-29 cells at 10 uM by sulforhodamine B assay
CCRF-CEM = assay: Growth inhibition of human CCRF-CEM cells at 10 uM by sulforhodamine B assay
HOP-92 = assay: Growth inhibition of human HOP92 cells at 10 uM by sulforhodamine B assay
SK-MEL-28 = assay: Growth inhibition of human SK-MEL-28 cells at 10 uM by sulforhodamine B assay
OVCAR-5 = assay: Growth inhibition of human OVCAR5 cells at 10 uM by sulforhodamine B assay
T47D = assay: Growth inhibition of human T47D cells at 10 uM by sulforhodamine B assay

Measured: growth inhibition (GI)

CCCCCCn1c(-c2ccc(OC)c(OC3CCCC3)c2)nc(-c2ccccc2)c1-c1ccccc1
active: SR | COLO 205 | K562 | LOX IMVI | SN12C | SK-OV-3 | BT-549 | HL-60(TB) | HCT-15 | SNB-75 | RXF 393 | MDA-MB-231 | NCI/ADR-RES | KM12 | SF-295 | A498 | U-251 | SNB-19 | SW-620 | SK-MEL-5 | MDA-MB-435 | SF-539 | Malme-3M | NCI-H522 | OVCAR-8 | PC-3 | HCT-116 | HCC 2998 | M14 | UACC-257 | NCI-H23 | NCI-H460 | UACC-62 | SK-MEL-2 | NCI-H226 | MDA-MB-468 | OVCAR-3 | OVCAR-4 | UO-31 | Hs-578T | 786-0 | TK-10 | RPMI-8226 | SF-268 | A549 | MCF7 | ACHN | CAKI-1 | DU-145 | NCI-H322M | HOP-62 | IGROV-1 | MOLT-4 | HT-29 | CCRF-CEM | HOP-92 | SK-MEL-28 | OVCAR-5 | T47D

C#CCn1c(-c2ccc(OC3CCCC3)c(OC)c2)nc(-c2ccccc2)c1-c1ccccc1
active: SR | COLO 205 | K562 | LOX IMVI | SN12C | SK-OV-3 | BT-549 | HL-60(TB) | HCT-15 | SNB-75 | RXF 393 | MDA-MB-231 | NCI/ADR-RES | KM12 | SF-295 | A498 | U-251 | SNB-19 | SW-620 | SK-MEL-5 | MDA-MB-435 | SF-539 | Malme-3M | NCI-H522 | OVCAR-8 | PC-3 | HCT-116 | HCC 2998 | M14 | UACC-257 | NCI-H23 | NCI-H460 | UACC-62 | SK-MEL-2 | NCI-H226 | MDA-MB-468 | OVCAR-3 | OVCAR-4 | UO-31 | Hs-578T | 786-0 | TK-10 | RPMI-8226 | SF-268 | A549 | MCF7 | ACHN | CAKI-1 | DU-145 | NCI-H322M | HOP-62 | IGROV-1 | MOLT-4 | HT-29 | CCRF-CEM | HOP-92 | SK-MEL-28 | OVCAR-5 | T47D
